In data set [1] the test system is Plasmopara Viticola. The data set can be described thus: whole plant or invertebrate. In kind it is in vivo. Particulars: foliar, read-out: disease control.
Data set [2] deals with Phaeosphaeria Nodorum (Septoria Nodorum). As to the kind of experiment: Phaeosphaeria nodorum (Septoria nodorum) / wheat / leaf disc preventative (glume blotch). The settings on record: Parastagonospora nodorum, foliar, wheat leaf segments cv Kanzler, inoculated 2 days after application, assessed 5-7 days after application, read-out: disease control. In kind it is in vivo. As to the method:
5 Phaeosphaeria Nodorum (Septoria Nodorum)/Wheat/Leaf Disc Preventative (Glume Blotch) Wheat leaf segments cv Kanzler were placed on agar in a 24-well plate and sprayed with formulated test compound diluted in water. The leaf disks were inoculated with a spore suspension of the fungus 2 days after application. The inoculated test leaf disks were incubated at 20° C. and 75% relative humidity under a light regime of 12/12 h (light/dark) in a climate cabinet and the activity of a compound was assessed as percent disease control compared to untreated when an appropriate level of disease damage appears in untreated check leaf disks (5-7 days after application).

In data set [3] the test system is Pythium Ultimum. As to the kind of experiment: Pythium ultimum / liquid culture (seedling damping off). The class given is cell-based. Particulars: Globisporangium ultimum, potato dextrose broth, 24° C., 2-3 days after application, read-out: disease control (inhibition of growth, photometrically).
For data set [4], the system named is Botryotinia Fuckeliana(Botrytis Cinerea). As to the kind of experiment: Botryotinia fuckeliana (Botrytis cinerea) / liquid culture (gray mould). In kind it is cell-based. Particulars: Vogels broth, 24° C., 3-4 days after application, read-out: disease control (inhibition of growth, photometrically). As to the method: 9 Botryotinia Fuckeliana(Botrytis Cinerea)/Liquid Culture (Gray Mould) Conidia of the fungus from cryogenic storage were directly mixed into nutrient broth (Vogels broth). After placing a DMSO solution of test compound into a 96-well microtiter plate, the nutrient broth containing the fungal spores was added. The test plates were incubated at 24° C. and the inhibition of growth was determined photometrically 3-4 days after application.

Data set [5] has as its system Mycosphaerella Arachidis(Cercospora Arachidicola). The data set can be described thus: Mycosphaerella arachidis (Cercospora arachidicola) / liquid culture (early leaf spot). The class given is cell-based. The settings on record: PDB potato dextrose broth, 24° C., 4-5 days after application, read-out: disease control (inhibition of growth, photometrically). As to the method:
11 Mycosphaerella Arachidis(Cercospora Arachidicola)/Liquid Culture (Early Leaf Spot) Conidia of the fungus from cryogenic storage were directly mixed into nutrient broth (PDB potato dextrose broth). After placing a DMSO solution of test compound into a 96-well microtiter plate, the nutrient broth containing the fungal spores was added. The test plates were incubated at 24° C. and the inhibition of growth was determined photometrically 4-5 days after application.

Data set [6] has as its system Mycosphaerella Graminicola(Septoria Tritici). As to the kind of experiment: Mycosphaerella graminicola (Septoria tritici) / liquid culture (Septoria blotch). In kind it is cell-based. Particulars: Zymoseptoria tritici, PDB potato dextrose broth, 24° C., 4-5 days after application, read-out: disease control (inhibition of growth, photometrically). As to the method: 12 Mycosphaerella Graminicola(Septoria Tritici)/Liquid Culture (Septoria Blotch) Conidia of the fungus from cryogenic storage were directly mixed into nutrient broth (PDB potato dextrose broth). After placing a DMSO solution of test compound into a 96-well microtiter plate, the nutrient broth containing the fungal spores was added. The test plates were incubated at 24° C. and the inhibition of growth was determined photometrically 4-5 days after application.

Data set [7] deals with Gaeumannomyces Graminis. As to the kind of experiment: Gaeumannomyces graminis / liquid culture (take-all of cereals). In kind it is cell-based. The settings on record: PDB potato dextrose broth, 24° C., 4-5 days after application, read-out: disease control (inhibition of growth, photometrically). The method, then: 13 Gaeumannomyces Graminis/Liquid Culture (Take-all of Cereals) Mycelial fragments of the fungus from cryogenic storage were directly mixed into nutrient broth (PDB potato dextrose broth). After placing a DMSO solution of test compound into a 96-well microtiter plate, the nutrient broth containing the fungal spores is added. The test plates were incubated at 24° C. and the inhibition of growth was determined photometrically 4-5 days after application.

The test system of data set [8] is Monographella Nivalis(Microdochium Nivale). The data set can be described thus: Monographella nivalis (Microdochium nivale) / liquid culture (foot rot cereals). The class given is cell-based. The settings on record: PDB potato dextrose broth, 24° C., 4-5 days after application, read-out: disease control (inhibition of growth, photometrically). As to the method:
14 Monographella Nivalis(Microdochium Nivale)/Liquid Culture (Foot Rot Cereals) Conidia of the fungus from cryogenic storage were directly mixed into nutrient broth (PDB potato dextrose broth). After placing a DMSO solution of test compound into a 96-well microtiter plate, the nutrient broth containing the fungal spores was added. The test plates were incubated at 24° C. and the inhibition of growth was determined photometrically 4-5 days after application.

Data set [9] relates to Fusarium Culmorum. As to the kind of experiment: microbe, parasite or virus in culture. In kind it is cell-based. The settings on record: read-out: disease control (inhibition of growth, photometrically).
The test system of data set [10] is Sclerotinia Sclerotiorum. The data set can be described thus: Sclerotinia sclerotiorum / liquid culture (cottony rot). The class given is cell-based. Particulars: PDB potato dextrose broth, 24° C., 3-4 days after application, read-out: disease control (inhibition of growth, visually). As to the method:
17 Sclerotinia Sclerotiorum/Liquid Culture (Cottony Rot) Mycelia fragments of a newly grown liquid culture of the fungus were directly mixed into nutrient broth (PDB potato dextrose broth). After placing a (DMSO) solution of the test compounds into a microtiter plate (96-well format) the nutrient broth containing the fungal material was added. The test plates were incubated at 24° C. and the inhibition of growth was determined visually 3-4 days after application.

Data set [11] concerns Glomerella Lagenarium(Colletotrichum Ladenarium). As to the kind of experiment: Glomerella lagenarium (Colletotrichum lagenarium) / liquid culture (anthracnose). The settings on record: PDB potato dextrose broth, 24° C., 3-4 days after application, read-out: disease control (inhibition of growth, photometrically). In kind it is cell-based. As to the method: 10 Glomerella Lagenarium(Colletotrichum Ladenarium)/Liquid Culture (Anthracnose) Conidia of the fungus from cryogenic storage were directly mixed into nutrient broth (PDB potato dextrose broth). After placing a DMSO solution of test compound into a 96-well microtiter plate, the nutrient broth containing the fungal spores was added. The test plates were incubated at 24° C. and the inhibition of growth was measured photometrically 3-4 days after application.

In data set [12] the test system is Thanatephorus Cucumeris(Rhizoctonia Solani). As to the kind of experiment: Thanatephorus cucumeris (Rhizoctonia solani) / liquid culture (foot rot, damping-off). In kind it is cell-based. The settings on record: PDB potato dextrose broth, 24° C., 3-4 days after application, read-out: disease control (inhibition of growth, photometrically). As to the method:
16 Thanatephorus Cucumeris(Rhizoctonia Solani)/Liquid Culture (Foot Rot, Damping-Off) Mycelia fragments of a newly grown liquid culture of the fungus were directly mixed into nutrient broth (PDB potato dextrose broth). After placing a DMSO solution of the test compounds into a 96-well microtiter plate at an application rate of 200 ppm, the nutrient broth containing the fungal material was added. The test plates were incubated at 24° C. and the inhibition of growth was determined photometrically 3-4 days after application.

Each structure is given as a SMILES string.

On to `OB1OCc2cc(F)c(-c3cncc(Cl)n3)cc21` [Compound 57], for which the pest or weed control at 200 ppm in data set [1] and in data set [2] was not below 80% in each case. Besides, the inhibition at 20 ppm in [3], in data set [4], in data set [5], in data set [6], in [7] and in data set [8] was not below 80% each time. Further, the inhibition at 20 ppm in [9] and in data set [10] was not below 80% in each case.
Regarding `COc1ncccc1-c1cc2c(cc1F)COB2O` [Compound 81], the pest or weed control at 200 ppm in data set [1] and in data set [2] was not below 80% each time. The inhibition at 20 ppm in data set [3], in data set [11], in [5], in [6], in [7] and in data set [8] was not below 80% throughout. Moreover, the inhibition at 20 ppm in data set [10] was not below 80%.
As for `OB1OCc2cc(Cl)c(-c3ccco3)cc21` [Compound 2, 5-chloro-6-(2-furyl)-1-hydroxy-3H-2,1-benzoxaborole], the melting point was in the range of 142 to 147 °C. The pest or weed control at 200 ppm in data set [1] was not below 80%. The pest or weed control at 200 ppm in data set [2] was not below 80%. Besides, in [3], the inhibition at 20 ppm is not below 80%. For the same compound, in data set [4], the inhibition at 20 ppm was not below 80%. In addition, the inhibition at 20 ppm in [11] is not below 80%. The inhibition at 20 ppm in data set [5] was not below 80%. Moreover, the inhibition at 20 ppm in data set [6] is not below 80%. Moreover, the inhibition at 20 ppm in [8] was not below 80%. The inhibition at 20 ppm in data set [9] is not below 80%. For the same compound, the inhibition at 20 ppm in data set [12] is not below 80%. The inhibition at 20 ppm in data set [10] is not below 80%.
Take `Cn1nnc(-c2ccc3c(c2)B(O)OC3)n1` [Compound 31, 5-(1-hydroxy-3H-2,1-benzoxaborol-6-yl)-2-methyl-tetrazole]: the melting point was 209 to 210 °C. In addition, the inhibition at 20 ppm in data set [3] is not below 80%. In addition, the inhibition at 20 ppm in data set [11] was not below 80%. In data set [5], the inhibition at 20 ppm was not below 80%. In data set [8], the inhibition at 20 ppm is not below 80%.
With `OB1OCc2cc(Cl)c(-c3cncc(Cl)n3)cc21` [Compound 68], the pest or weed control at 200 ppm in data set [1] and in data set [2] was not below 80% throughout. Moreover, the inhibition at 20 ppm in [3], in [4], in [5], in data set [6], in data set [7] and in data set [8] was not below 80% in each case. Moreover, the inhibition at 20 ppm in [10] was not below 80%.
For `OB1OCc2cc(F)c(-c3ccco3)cc21` [Compound 5], the melting point was in the range of 155 to 164 °C. Moreover, the pest or weed control at 200 ppm in data set [1] is not below 80%. The inhibition at 20 ppm in data set [3] is not below 80%. Also, in [4], the inhibition at 20 ppm was not below 80%. Besides, the inhibition at 20 ppm in data set [11] is not below 80%. The inhibition at 20 ppm in data set [5] is not below 80%. Further, in [6], the inhibition at 20 ppm is not below 80%. For the same compound, in data set [7], the inhibition at 20 ppm is not below 80%. Also, the inhibition at 20 ppm in [8] is not below 80%. For the same compound, the inhibition at 20 ppm in data set [9] is not below 80%. The inhibition at 20 ppm in data set [12] is not below 80%. Moreover, the inhibition at 20 ppm in [10] is not below 80%.
As for `OB1OCc2cc(Cl)c(-c3cncs3)cc21` [Compound 25], the pest or weed control at 200 ppm in [1] and in [2] was not below 80% throughout. Moreover, the inhibition at 20 ppm in [3], in data set [4], in data set [11], in [5], in data set [6] and in [7] was not below 80% in each case. The inhibition at 20 ppm in data set [8], in [9], in [12] and in data set [10] was not below 80% each time.
As to `Cc1cscc1-c1cc2c(cc1F)COB2O` [Compound 50], the pest or weed control at 200 ppm in [1] and in data set [2] was not below 80% throughout. Besides, the inhibition at 20 ppm in data set [3], in data set [4], in data set [11], in data set [5], in data set [6] and in [7] was not below 80% in each case. Besides, the inhibition at 20 ppm in data set [8], in [9], in [12] and in [10] was not below 80% in each case.
The compound `OB1OCc2ccc(-c3ncno3)cc21` [Compound 49] had a melting point of 179 to 180 °C. Moreover, the pest or weed control at 200 ppm in data set [1] is not below 80%. Further, the pest or weed control at 200 ppm in data set [2] is not below 80%. Also, the inhibition at 20 ppm in [3] is not below 80%. In data set [4], the inhibition at 20 ppm was not below 80%. In [11], the inhibition at 20 ppm was not below 80%. In addition, the inhibition at 20 ppm in data set [5] was not below 80%. Further, the inhibition at 20 ppm in data set [6] was not below 80%. Moreover, in data set [7], the inhibition at 20 ppm was not below 80%. In addition, in data set [8], the inhibition at 20 ppm was not below 80%. In addition, in data set [9], the inhibition at 20 ppm was not below 80%. Further, the inhibition at 20 ppm in [12] is not below 80%. In addition, in data set [10], the inhibition at 20 ppm was not below 80%.
As to `OB1OCc2cc(Cl)c(-c3ccccn3)cc21` [Compound 8], the pest or weed control at 200 ppm in data set [1] and in [2] was not below 80% throughout. For the same compound, the inhibition at 20 ppm in data set [3], in data set [4], in data set [11], in data set [5], in [6] and in data set [9] was not below 80% in each case. The inhibition at 20 ppm in data set [10] is not below 80%.
In turn, `O=Cc1ccc(-c2cc3c(cc2Cl)COB3O)o1` [Compound 21, 5-(5-chloro-1-hydroxy-3H-2,1-benzoxaborol-6-yl)furan-2-carbaldehyde] gave a melting point of 145 to 165 °C. Besides, the pest or weed control at 200 ppm in [1] is not below 80%. In addition, in data set [3], the inhibition at 20 ppm is not below 80%. For the same compound, in data set [11], the inhibition at 20 ppm is not below 80%. Moreover, the inhibition at 20 ppm in data set [6] is not below 80%. Further, in [7], the inhibition at 20 ppm is not below 80%. For the same compound, the inhibition at 20 ppm in data set [8] is not below 80%. For the same compound, the inhibition at 20 ppm in data set [10] was not below 80%.

Values taken from patent US10314308B2, “Microbiocidal benzoxaboroles” (SYNGENTA PARTICIPATIONS AG, priority 2015, dated 2019).
